This is an account of results in US10479784B2, “Substituted pyrazin-2-amines as inhibitors of ATR kinase” (Vertex Pharmaceuticals Incorporated, priority 2008, dated 2019).

What is called Ki is the equilibrium dissociation constant of an inhibitor or competing ligand from its target.

The target in this test is full-length ATR (Homo sapiens (Human), UniProt Q13535). Description: ATR Inhibition Assay (radioactive-phosphate incorporation). It is filed as biochemical. To be noted: read-out: ATR Ki. The procedure, abridged:
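Full-length human ATR (5 nM) was assayed at 25 °C in 50 mM Tris/HCl pH 7.5, 10 mM MgCl2, 1 mM DTT, with 10 μM [γ-33P]ATP and 800 μM peptide, after 10-min compound preincubation. Reactions were stopped after 24 h, captured on phosphocellulose and counted; Ki(app) came from non-linear regression of initial rates.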

Sequence of full-length ATR (Q13535 whole entry): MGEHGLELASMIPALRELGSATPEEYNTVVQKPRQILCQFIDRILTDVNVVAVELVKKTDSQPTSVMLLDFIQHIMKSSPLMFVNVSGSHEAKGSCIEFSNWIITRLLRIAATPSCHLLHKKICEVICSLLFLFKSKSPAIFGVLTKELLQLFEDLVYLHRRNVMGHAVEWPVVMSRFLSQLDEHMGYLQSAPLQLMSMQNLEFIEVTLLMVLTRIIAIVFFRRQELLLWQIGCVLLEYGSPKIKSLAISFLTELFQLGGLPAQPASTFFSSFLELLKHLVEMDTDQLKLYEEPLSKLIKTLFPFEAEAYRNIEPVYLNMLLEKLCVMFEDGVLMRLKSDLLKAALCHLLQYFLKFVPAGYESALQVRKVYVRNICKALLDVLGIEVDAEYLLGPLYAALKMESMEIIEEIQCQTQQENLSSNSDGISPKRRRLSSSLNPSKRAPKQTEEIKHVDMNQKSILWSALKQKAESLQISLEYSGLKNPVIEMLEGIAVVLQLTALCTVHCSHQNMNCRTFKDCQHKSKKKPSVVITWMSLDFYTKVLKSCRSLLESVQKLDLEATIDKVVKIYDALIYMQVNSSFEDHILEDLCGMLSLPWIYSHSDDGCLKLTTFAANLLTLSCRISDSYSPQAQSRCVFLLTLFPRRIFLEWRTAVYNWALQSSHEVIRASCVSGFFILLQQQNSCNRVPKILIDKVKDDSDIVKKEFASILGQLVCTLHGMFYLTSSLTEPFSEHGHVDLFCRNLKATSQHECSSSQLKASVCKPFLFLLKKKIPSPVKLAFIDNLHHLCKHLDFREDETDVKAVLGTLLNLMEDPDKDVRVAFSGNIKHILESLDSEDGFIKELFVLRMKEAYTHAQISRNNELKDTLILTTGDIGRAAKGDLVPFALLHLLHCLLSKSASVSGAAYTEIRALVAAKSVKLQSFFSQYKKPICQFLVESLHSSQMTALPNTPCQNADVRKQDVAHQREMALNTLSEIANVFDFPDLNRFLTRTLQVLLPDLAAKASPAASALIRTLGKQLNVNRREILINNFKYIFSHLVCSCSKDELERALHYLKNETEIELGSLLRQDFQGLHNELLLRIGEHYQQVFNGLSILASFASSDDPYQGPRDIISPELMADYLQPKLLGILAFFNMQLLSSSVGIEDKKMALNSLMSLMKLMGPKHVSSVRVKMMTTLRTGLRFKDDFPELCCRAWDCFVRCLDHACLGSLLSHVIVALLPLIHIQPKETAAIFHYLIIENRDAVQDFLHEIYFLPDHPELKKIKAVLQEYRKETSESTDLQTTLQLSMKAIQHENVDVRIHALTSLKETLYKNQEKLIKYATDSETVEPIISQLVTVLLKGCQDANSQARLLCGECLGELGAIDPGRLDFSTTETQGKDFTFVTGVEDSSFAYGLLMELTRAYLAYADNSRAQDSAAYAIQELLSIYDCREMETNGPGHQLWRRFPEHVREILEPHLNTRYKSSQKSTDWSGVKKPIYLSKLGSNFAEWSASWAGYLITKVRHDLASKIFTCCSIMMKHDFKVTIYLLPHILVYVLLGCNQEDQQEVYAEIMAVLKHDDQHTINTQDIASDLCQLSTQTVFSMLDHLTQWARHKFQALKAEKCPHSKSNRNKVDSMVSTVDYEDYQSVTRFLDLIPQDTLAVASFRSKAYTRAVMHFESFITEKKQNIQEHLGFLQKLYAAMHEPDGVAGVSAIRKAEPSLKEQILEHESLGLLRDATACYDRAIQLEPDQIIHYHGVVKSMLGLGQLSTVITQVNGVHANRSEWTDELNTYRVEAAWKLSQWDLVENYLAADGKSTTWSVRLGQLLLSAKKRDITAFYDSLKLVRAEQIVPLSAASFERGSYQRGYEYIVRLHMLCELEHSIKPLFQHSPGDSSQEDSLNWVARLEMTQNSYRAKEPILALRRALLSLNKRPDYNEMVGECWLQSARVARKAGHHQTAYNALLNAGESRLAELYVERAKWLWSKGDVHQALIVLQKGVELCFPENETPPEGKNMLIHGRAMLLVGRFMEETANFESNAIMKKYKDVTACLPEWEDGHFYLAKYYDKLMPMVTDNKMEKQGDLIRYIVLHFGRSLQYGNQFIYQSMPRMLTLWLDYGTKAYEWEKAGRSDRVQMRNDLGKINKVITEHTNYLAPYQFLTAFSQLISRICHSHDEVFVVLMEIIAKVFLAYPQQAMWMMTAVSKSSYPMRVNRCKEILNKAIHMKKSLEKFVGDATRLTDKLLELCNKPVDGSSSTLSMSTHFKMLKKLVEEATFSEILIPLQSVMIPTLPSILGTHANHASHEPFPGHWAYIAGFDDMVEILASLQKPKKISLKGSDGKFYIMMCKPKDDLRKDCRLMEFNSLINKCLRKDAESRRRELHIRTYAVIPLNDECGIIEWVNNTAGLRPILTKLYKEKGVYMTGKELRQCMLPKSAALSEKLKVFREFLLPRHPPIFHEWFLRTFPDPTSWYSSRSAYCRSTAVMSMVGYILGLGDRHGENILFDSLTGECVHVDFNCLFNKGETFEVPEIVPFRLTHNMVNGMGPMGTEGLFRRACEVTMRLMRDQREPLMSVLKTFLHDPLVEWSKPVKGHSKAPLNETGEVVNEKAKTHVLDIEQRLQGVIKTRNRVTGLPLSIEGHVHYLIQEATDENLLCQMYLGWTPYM

In the case of `Nc1ncc(-c2ccccc2)nc1-c1nc2ccccc2[nH]1` [Compound I-110, 3-(1H-benzo[d]imidazol-2-yl)-5-phenylpyrazin-2-amine], the Ki is 100 to 5000 nM.

On to `CN(C)CCOc1cc(-c2cnc(N)c(-c3nnc(-c4ccccc4)o3)n2)ccn1` [IA-165, 5-[2-(2-dimethylaminoethyloxy)-4-pyridyl]-3-(5-phenyl-1,3,4-oxadiazol-2-yl)pyrazin-2-amine], for which the Ki is 10 to 100 nM.

Consider `CC(C)S(=O)(=O)c1ccc(-c2cnc(N)c(-c3nnc(N4CCNCC4)o3)n2)cc1` [IA-239, 5-(4-isopropylsulfonylphenyl)-3-(5-piperazin-1-yl-1,3,4-oxadiazol-2-yl)pyrazin-2-amine], for which the Ki is 100 to 5000 nM.

`CC(C)S(=O)(=O)c1ccc(-c2cnc(N)c(-c3nnc(-c4ccc(CNC[C@H](C)O)cc4F)o3)n2)cc1` [IA-334, (S)-1-(4-(5-(3-amino-6-(4-(isopropylsulfonyl)phenyl)pyrazin-2-yl)-1,3,4-oxadiazol-2-yl)-3-fluorobenzylamino)propan-2-ol]: the Ki was not above 10 nM.

With `CC(C)S(=O)(=O)c1ccc(-c2cnc(N)c(-c3nnc(-c4cccc(C#N)c4)o3)n2)cc1` [IA-187, 3-[5-[3-amino-6-(4-isopropylsulfonylphenyl)pyrazin-2-yl]-1,3,4-oxadiazol-2-yl]benzonitrile], the Ki was 10 to 100 nM.

Regarding `CC(C)S(=O)(=O)c1ccc(-c2cnc(N)c(-c3cc(-c4ccc(CN)cc4)no3)n2)cc1` [IIA-5, 3-[3-[4-(aminomethyl)phenyl]isoxazol-5-yl]-5-(4-isopropylsulfonylphenyl)pyrazin-2-amine], the Ki was not above 10 nM.

For the compound `Nc1ncc(-c2ccc(C(=O)N3CCCNCC3)cc2)nc1-c1cc(-c2ccccc2)no1` [IIA-3], the Ki was not above 10 nM.

Consider `CC(C)S(=O)(=O)c1ccc(-c2cnc(N)c(-c3nnc(-c4ccc(C#N)cc4)o3)n2)cc1` [IA-273, 4-[5-[3-amino-6-(4-isopropylsulfonylphenyl)pyrazin-2-yl]-1,3,4-oxadiazol-2-yl]benzonitrile], for which the Ki is 10 to 100 nM.

With `CN(C)C(=O)c1ccc(-c2cnc(N)c(-c3nnc(-c4ccco4)o3)n2)cc1` [IA-115, 4-[5-amino-6-[5-(2-furyl)-1,3,4-oxadiazol-2-yl]pyrazin-2-yl]-N,N-dimethyl-benzamide], the Ki fell in the range of 10 to 100 nM.

Regarding `CS(=O)(=O)c1ccc(-c2cnc(N)c(-c3nc4ccccc4[nH]3)n2)cc1` [Compound I-123, 3-(1H-benzo[d]imidazol-2-yl)-5-(4-(methylsulfonyl)phenyl)pyrazin-2-amine], the Ki lay within 10 to 100 nM.

Regarding `CN1CCC(NC(=O)c2cccc(-c3cnc(N)c(C(=O)Nc4ccccc4)n3)c2)CC1` [Compound I-48, 3-amino-6-(3-(1-methylpiperidin-4-ylcarbamoyl)phenyl)-N-phenylpyrazine-2-carboxamide], the inhibition constant (Ki) was 100 to 5000 nM.

For `CNCc1ccc(-c2nnc(-c3nc(-c4ccc(S(=O)(=O)C(C)C)cn4)cnc3N)o2)cc1` [IA-300, 5-(5-isopropylsulfonyl-2-pyridyl)-3-[5-[4-(methylaminomethyl)phenyl]-1,3,4-oxadiazol-2-yl]pyrazin-2-amine], the Ki is not above 10 nM.

As for `CN1CCN(C(=O)c2cccc(-c3cnc(N)c(C(=O)Nc4ccccc4)n3)c2)CC1` [Compound I-59, 3-amino-6-(3-(4-methylpiperazine-1-carbonyl)phenyl)-N-phenylpyrazine-2-carboxamide], the Ki is 100 to 5000 nM.

As to `CN(C)C(=O)c1ccc(-c2cnc(N)c(-c3nnc(-c4ccc(CNC(=O)OC(C)(C)C)cc4)o3)n2)cc1` [IA-162, tert-butyl N-[[4-[5-[3-amino-6-[4-(dimethylcarbamoyl)phenyl]pyrazin-2-yl]-1,3,4-oxadiazol-2-yl]phenyl]methyl]carbamate], the Ki was in the range of 10 to 100 nM.

For `Nc1ncc(-c2cccc(C(F)(F)F)c2)nc1-c1nnc(-c2ccccc2)o1` [IA-96, 3-(5-phenyl-1,3,4-oxadiazol-2-yl)-5-[3-(trifluoromethyl)phenyl]pyrazin-2-amine], the Ki was in the range of 100 to 5000 nM.

Consider `Nc1ncc(-c2ccccc2Br)nc1-c1nnc(-c2ccccc2)o1` [IA-176, 5-(2-bromophenyl)-3-(5-phenyl-1,3,4-oxadiazol-2-yl)pyrazin-2-amine], for which the Ki is 100 to 5000 nM.

In the case of `Nc1ncc(-c2ccc(O)nc2)nc1C(=O)Nc1ccccc1` [Compound I-32, 3-amino-6-(6-hydroxypyridin-3-yl)-N-phenylpyrazine-2-carboxamide], the Ki was 10 to 100 nM.

In the case of `CS(=O)(=O)c1ccccc1-c1cnc(N)c(-c2nnc(-c3ccccc3)o2)n1` [IA-190, 5-(2-methylsulfonylphenyl)-3-(5-phenyl-1,3,4-oxadiazol-2-yl)pyrazin-2-amine], the Ki lay in the range of 100 to 5000 nM.

For `Cc1ccsc1-c1nnc(-c2nc(-c3ccc(C(=O)N(C)C)cc3)cnc2N)o1` [IA-167, 4-[5-amino-6-[5-(3-methyl-2-thienyl)-1,3,4-oxadiazol-2-yl]pyrazin-2-yl]-N,N-dimethyl-benzamide], the Ki is not above 10 nM.

Regarding `Nc1ncc(-c2ccc(C(=O)N3CCCNCC3)cc2)nc1C(=O)Nc1nc2ccccc2[nH]1` [Compound V-10], the Ki was not above 10 nM.

Consider `CNCc1cccc(-c2nnc(-c3nc(-c4ccc(S(=O)(=O)C(C)C)cc4)cnc3N)o2)c1` [IA-146, 5-(4-isopropylsulfonylphenyl)-3-[5-[3-(methylaminomethyl)phenyl]-1,3,4-oxadiazol-2-yl]pyrazin-2-amine], for which the Ki was not above 10 nM.

As for `CN(C)C(=O)c1ccc(-c2cnc(N)c(-c3nnc(-c4cccc(CO)c4)o3)n2)cc1` [IA-198, 4-[5-amino-6-[5-[3-(hydroxymethyl)phenyl]-1,3,4-oxadiazol-2-yl]pyrazin-2-yl]-N,N-dimethyl-benzamide], the Ki was in the range of 10 to 100 nM.

`CC(C)S(=O)(=O)c1ccc(-c2cnc(N)c(-c3nnc(-c4ccc(CNCC(F)F)s4)o3)n2)cc1` [IA-236, 3-[5-[5-[(2,2-difluoroethylamino)methyl]-2-thienyl]-1,3,4-oxadiazol-2-yl]-5-(4-isopropylsulfonylphenyl)pyrazin-2-amine]: the Ki lay in the range of 10 to 100 nM.

For `Cc1ccc2nc(-c3nc(-c4ccc(C(=O)N5CCC(N(C)C)CC5)cc4)cnc3N)[nH]c2c1` [Compound I-148, (4-(5-amino-6-(6-methyl-1H-benzo[d]imidazol-2-yl)pyrazin-2-yl)phenyl)(4-(dimethylamino)piperidin-1-yl)methanone], the Ki was in the range of 10 to 100 nM.

Regarding `CN(C)C(=O)c1ccc(-c2cnc(N)c(-c3nnc(-c4cccc([N+](=O)[O-])c4)o3)n2)cc1` [IA-286, 4-(5-amino-6-(5-(3-nitrophenyl)-1,3,4-oxadiazol-2-yl)pyrazin-2-yl)-N,N-dimethylbenzamide], the Ki lay in the range of 100 to 5000 nM.

For the compound `CNCc1ccc(-c2nnc(-c3nc(-c4ccc(S(=O)(=O)C(C)C)cc4)cnc3N)o2)cc1F` [IA-336, 3-[5-[3-fluoro-4-(methylaminomethyl)phenyl]-1,3,4-oxadiazol-2-yl]-5-(4-isopropylsulfonylphenyl)pyrazin-2-amine], the Ki was not above 10 nM.

Take `N#Cc1cnccc1-c1cnc(N)c(C(=O)Nc2nc3ccccc3[nH]2)n1` [Compound V-3]: the Ki is not above 10 nM.

`CC(C)S(=O)(=O)c1ccc(-c2cnc(N)c(-c3nnc(C(=O)O)o3)n2)cc1` [IA-128, 5-[3-amino-6-(4-isopropylsulfonylphenyl)pyrazin-2-yl]-1,3,4-oxadiazole-2-carboxylic acid]: the Ki is not above 10 nM.

With `CNCc1ccc(-c2nnc(-c3nc(-c4ccc(S(=O)(=O)C(C)C)cc4C#N)cnc3N)o2)cc1` [IA-331, 2-[5-amino-6-[5-[4-(methylaminomethyl)phenyl]-1,3,4-oxadiazol-2-yl]pyrazin-2-yl]-5-isopropylsulfonyl-benzonitrile], the Ki was not above 10 nM.

As to `CNCc1ccc(-c2nnc(-c3nc(-c4ccc(S(=O)(=O)C(C)C)cc4)cnc3N)o2)c(Cl)c1` [IA-306, 3-[5-[2-chloro-4-(methylaminomethyl)phenyl]-1,3,4-oxadiazol-2-yl]-5-(4-isopropylsulfonylphenyl)pyrazin-2-amine], the Ki is not above 10 nM.

`CS(=O)(=O)c1ccc(-c2cnc(N)c(C(=O)Nc3n[nH]c4ccccc34)n2)cc1` [Compound V-13]: the Ki lay within 100 to 5000 nM.

Take `CN(C)CCN(C)C(=O)c1cccc(-c2cnc(N)c(C(=O)Nc3ccccc3)n2)c1` [Compound I-52, 3-amino-6-(3-((2-(dimethylamino)ethyl)(methyl)carbamoyl)phenyl)-N-phenylpyrazine-2-carboxamide]: the Ki was in the range of 100 to 5000 nM.

Take `COc1ccccc1Nc1nnc(-c2nc(-c3ccc(C(=O)N(C)C)cc3)cnc2N)o1` [IA-103, 4-[5-amino-6-[5-(2-methoxyanilino)-1,3,4-oxadiazol-2-yl]pyrazin-2-yl]-N,N-dimethyl-benzamide]: the Ki lay in the range of 10 to 100 nM.

As for `C[S+]([O-])c1ccccc1-c1cnc(N)c(-c2nnc(-c3cccc(CN)c3)o2)n1` (stereo not drawn) [IA-257, 3-[5-[3-(aminomethyl)phenyl]-1,3,4-oxadiazol-2-yl]-5-(2-methylsulfinylphenyl)pyrazin-2-amine], the Ki was not above 10 nM.

In the case of `CN(C)C(=O)c1ccc(-c2cnc(N)c(-c3nnc(-c4ccccc4F)o3)n2)cc1` [IA-30], the Ki is not above 10 nM.

Turning to `CC(C)S(=O)(=O)c1ccc(-c2cnc(N)c(-c3nnc(-c4cccc([C@H](C)N)c4)o3)n2)cc1` [IA-123, 3-[5-[3-[(1S)-1-aminoethyl]phenyl]-1,3,4-oxadiazol-2-yl]-5-(4-isopropylsulfonylphenyl)pyrazin-2-amine], the Ki was not above 10 nM.

Regarding `CN(C)C(=O)c1ccc(-c2cnc(N)c(-c3nnc(-c4cccs4)o3)n2)cc1` [IA-52], the Ki is not above 10 nM.

For `CNc1nnc(-c2nc(-c3ccc(C(=O)N(C)C)cc3)cnc2N)o1` [IA-33], the Ki is 100 to 5000 nM.

`CC(=O)c1cccc(-c2cnc(N)c(-c3nnc(-c4ccccc4)o3)n2)c1` [IA-249, 1-[3-[5-amino-6-(5-phenyl-1,3,4-oxadiazol-2-yl)pyrazin-2-yl]phenyl]ethanone]: the Ki lay in the range of 10 to 100 nM.
